Experimental data: paper PMC11984419, “Differential senolytic inhibition of normal versus Aβ-associated cholinesterases: implications in aging and Alzheimer’s disease” (Aging (Albany NY), 2025)
Where a name gives a salt, the structure may show the parent alone. Read-outs that look alike come from different tables or passages of the source.

Columns and labels:
recombinant human AChE = biological target: T1, recombinant human AChE (Homo sapiens, UniProt P22303); experiment: Enzyme kinetic study (Ellman's assay, Lineweaver-Burk) with AChE; type: biochemical; conditions: for AChE mode of inhibition: from Lineweaver-Burk plots
T1 construct: purchased MilliporeSigma Canada Ltd. (Oakville, Ontario, Canada)
Protocol: (§1) Enzyme kinetic studies were performed as previously described, using Ellman’s assay. Briefly, in a quartz cuvette (1 cm pathlength), a 0.577 mM DTNB solution in 0.1 M potassium phosphate buffer (1.6 mL, pH 7.0) was combined at room temperature with either recombinant AChE (0.1 mL, 3.7 nM) in 0.005% aqueous gelatin or purified human serum BChE (0.1 mL, 5.85 nM) in 0.005% aqueous gelatin and mixed with a senolytic or nootropic compound (Figure 1) dissolved in 50% (v/v) aqueous acetonitrile (0.05 mL). […] Substrate concentrations were kept constant while the senolytic concentrations varied (0-140 μM). Changes in absorbance (ΔA/min), reflecting the rate of ATChI or BTChI hydrolysis with their respective enzymes, were recorded spectrophotometrically every 5 seconds for 1 minute.
(§2) As done previously, Lineweaver-Burk plots were generated for each senolytic and nootropic compound with the velocity (v) of each reaction determined using Beer’s Law, where v = (ΔA/min)/(εl), ε is the molar extinction coefficient for 5-thio-2-nitrobenzoic acid (TNB) (13600 M^−1 cm^−1), and l is the cuvette pathlength (1 cm). Replotting the calculated slopes from each double reciprocal plot against senolytic and nootropic concentrations, gave the inhibitor constant (Ki, M) as the x-intercept. The mode of inhibition (competitive, non-competitive, mixed non-competitive, or uncompetitive) was also determined by analyzing the relational pattern of linear regressions for varying concentrations of the same senolytic or nootropic compound. Enzyme kinetic experiments were performed in triplicate and kinetic parameter values were averaged.

[1] = biological target: T2, BChE purified from human plasma (Homo sapiens, UniProt P06276); experiment: Enzyme kinetic study (Ellman's assay, Lineweaver-Burk) with BChE; type: biochemical; conditions: for BChE mode of inhibition: from Lineweaver-Burk plots
T2 construct: BChE purified from human plasma was a gift from Dr. Oksana Lockridge; tissue gift from Dr. Oksana Lockridge (Eppley Institute, University of Nebraska Medical Center); host or cells: human plasma
Protocol: as §1, §2

[2] = biological target: T3, AChE associated with β-amyloid plaques (Homo sapiens, UniProt P22303); experiment: Karnovsky-Roots histochemical staining, AChE associated with plaques (pH 6.8); type: biochemical; conditions: for Inhibition of AChE staining associated with plaques (in words): pH 6.8, compared with control staining; for Inhibition of staining, AChE pH 6.8: plaques, AD orbitofrontal cortex, average ranking of four AD cases, compound 0.25-1.3 mM in KR solution
T3 construct: post-mortem brain tissues from sex- and age-matched AD cases; tissue Maritime Brain Tissue Bank, Dalhousie University; host or cells: post-mortem human AD brain: orbitofrontal cortex (plaques, pH 6.8) and thalamus (normal neural elements, pH 8.0)
Protocol: (§3) Histochemical staining for AChE and BChE activity in brain tissues was done using a modified Karnovsky-Roots (KR) method. Tissue sections were first rinsed for 30 min in 0.1 M PB, followed by 30 min in 0.1 M PB with […] hydrogen peroxide (H2O2) and then rinsed for 30 min with 0.1 M maleate buffer (MB; pH 6.8 or […]) prior to incubation in the KR solution. Sections stained for AChE were incubated in the KR solution for 1.75 hr, while sections stained for BChE were incubated for 2.5 hr. The KR staining solution contained 0.5 mM sodium citrate, 0.47 mM cupric sulfate, and 0.05 mM of potassium ferricyanide, a thioester ChE substrate and ChE inhibitor in MB at pH 6.8 to stain for ChEs associated with AD pathology or pH 8.0 to stain for ChEs associated with normal neural elements. For AChE staining, ATChI (0.4 mM) was used as the substrate and ethopropazine (0.06 mM) was used to inhibit BChE. For BChE staining, BTChI (0.8 mM) was used as the substrate and BW 284c51 (0.01 mM) was used to inhibit AChE. Following incubation in KR, sections were rinsed in distilled water (dH2O) for 30 min, incubated in a 0.1% cobalt chloride solution in dH2O for 10 min, and rinsed again in dH20 for 30 min. Sections were incubated in 1.39 mM 3,3’-diaminobenzidine tetrahydrochloride (DAB) in PB (pH 7.4) for 5 min and then developed using 50 μL of 0.3% H2O2 per mL of DAB solution. The reaction was stopped by a 30 min rinse in 0.01 M acetate buffer (pH 3.3). Stained sections were mounted on glass slides, cover-slipped and examined with brightfield microscopy.
(§4) To evaluate the interactions of senolytic and nootropic compounds with ChEs in brain tissues, the above histochemical technique was used with minor variations to the KR incubation. Senolytic and nootropic compounds were dissolved in 50% aqueous acetonitrile to make a stock solution. […] Following incubation for AChE (1.75 hr) and BChE (2.5 hr) in the KR solution, staining was completed as described above.
(§5) Positive controls included staining for BChE and AChE activity at pH 6.8 and pH 8.0 without any additions. Negative controls were utilized to validate staining specificity of BChE and AChE at pH 6.8 and pH 8.0, where the substrates (BTChI and ATChI, respectively) were omitted, as previously described. […] Briefly, 50% aqueous acetonitrile was added to the KR solution, without any senolytic or nootropic compound, while maintaining the same volume as the compound additives.
(§6) A qualitative method was used to evaluate the effect of senolytic and nootropic compounds on ChE histochemical staining, as done previously. Inhibition of staining intensity was categorized as follows: No reduction (-), slight (x), moderate (xx), or strong (xxx). Tissue sections were analyzed using brightfield microscopy on an Olympus BX50F microscope (Olympus Optical Co., Ltd., Tokyo, Japan). Photomicrographs of the stained tissue sections were taken using a Zeiss Axio Scan.Z1 slide scanner with Zen 3.1 Blue Edition software (Carl Zeiss Canada Ltd., Toronto, Ontario, Canada). Figures were assembled using Adobe Photoshop (CS 5, Version 12.0, San Diego, CA, USA). The brightness of each individual image was adjusted to ensure backgrounds matched for analysis.

[3] = biological target: T4, BChE associated with β-amyloid plaques (Homo sapiens, UniProt P06276); experiment: Karnovsky-Roots histochemical staining, BChE associated with plaques (pH 6.8); type: biochemical; conditions: for Inhibition of BChE staining associated with plaques (in words): pH 6.8, compared with control staining; for Inhibition of staining, BChE pH 6.8: plaques, AD orbitofrontal cortex, average ranking of four AD cases, compound 0.25-1.3 mM in KR solution
T4 construct: post-mortem brain tissues from sex- and age-matched AD cases; tissue Maritime Brain Tissue Bank, Dalhousie University; host or cells: post-mortem human AD brain: orbitofrontal cortex (plaques, pH 6.8) and thalamus (normal neural elements, pH 8.0)
Protocol: as §3, §4, §5, §6

[4] = biological target: T5, AChE associated with normal neural elements (Homo sapiens, UniProt P22303); experiment: Karnovsky-Roots histochemical staining, AChE associated with normal neural elements (pH 8.0); type: biochemical; conditions: for Inhibition of staining, AChE pH 8.0: normal neural elements, AD thalamus, average ranking of four AD cases, compound 0.25-1.3 mM in KR solution; for Inhibition of AChE staining associated with normal neural elements (in words): pH 8.0, relative to controls
T5 construct: post-mortem brain tissues from sex- and age-matched AD cases; tissue Maritime Brain Tissue Bank, Dalhousie University; host or cells: post-mortem human AD brain: orbitofrontal cortex (plaques, pH 6.8) and thalamus (normal neural elements, pH 8.0)
Protocol: as §3, §4, §5, §6

[5] = biological target: T6, BChE associated with normal neural elements (Homo sapiens, UniProt P06276); experiment: Karnovsky-Roots histochemical staining, BChE associated with normal neural elements (pH 8.0); type: biochemical; conditions: for Inhibition of staining, BChE pH 8.0: normal neural elements, AD thalamus, average ranking of four AD cases, compound 0.25-1.3 mM in KR solution; for Inhibition of BChE staining associated with normal neural elements (in words): pH 8.0, relative to controls
T6 construct: post-mortem brain tissues from sex- and age-matched AD cases; tissue Maritime Brain Tissue Bank, Dalhousie University; host or cells: post-mortem human AD brain: orbitofrontal cortex (plaques, pH 6.8) and thalamus (normal neural elements, pH 8.0)
Protocol: as §3, §4, §5, §6

[6] = test system: ChE associated with plaques; conditions: ref [37]; cited from earlier work
[7] = test system: ChE associated with normal neural elements; conditions: ref [37]; cited from earlier work
BChE = conditions: read-out: Literature BChE Ki values, cited from earlier work
AChE = conditions: ref Katalinić et al. [60]; read-out: Literature AChE Ki values; cited from earlier work
[8] = purified human serum BChE, BTChI substrate, pH 7.0, triplicate

T6 sequence (P06276 29-602): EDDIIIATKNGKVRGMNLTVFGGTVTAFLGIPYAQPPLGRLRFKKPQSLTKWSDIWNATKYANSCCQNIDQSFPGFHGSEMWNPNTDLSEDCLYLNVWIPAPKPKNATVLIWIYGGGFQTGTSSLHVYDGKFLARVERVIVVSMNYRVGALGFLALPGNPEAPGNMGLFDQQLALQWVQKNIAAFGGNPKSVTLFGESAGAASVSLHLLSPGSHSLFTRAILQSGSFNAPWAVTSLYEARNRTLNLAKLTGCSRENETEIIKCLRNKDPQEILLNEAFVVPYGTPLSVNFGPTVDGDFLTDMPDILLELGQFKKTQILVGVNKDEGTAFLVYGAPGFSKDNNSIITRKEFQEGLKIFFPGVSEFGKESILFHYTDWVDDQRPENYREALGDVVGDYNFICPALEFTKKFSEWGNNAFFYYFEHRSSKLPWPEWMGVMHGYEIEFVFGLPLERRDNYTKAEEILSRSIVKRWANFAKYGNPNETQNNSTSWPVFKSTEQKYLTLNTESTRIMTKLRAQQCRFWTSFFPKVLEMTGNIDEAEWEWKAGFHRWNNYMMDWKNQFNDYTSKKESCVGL
T2 sequence (P06276 29-602): as above
T4 sequence (P06276 29-602): as above
T1 sequence (P22303 32-614): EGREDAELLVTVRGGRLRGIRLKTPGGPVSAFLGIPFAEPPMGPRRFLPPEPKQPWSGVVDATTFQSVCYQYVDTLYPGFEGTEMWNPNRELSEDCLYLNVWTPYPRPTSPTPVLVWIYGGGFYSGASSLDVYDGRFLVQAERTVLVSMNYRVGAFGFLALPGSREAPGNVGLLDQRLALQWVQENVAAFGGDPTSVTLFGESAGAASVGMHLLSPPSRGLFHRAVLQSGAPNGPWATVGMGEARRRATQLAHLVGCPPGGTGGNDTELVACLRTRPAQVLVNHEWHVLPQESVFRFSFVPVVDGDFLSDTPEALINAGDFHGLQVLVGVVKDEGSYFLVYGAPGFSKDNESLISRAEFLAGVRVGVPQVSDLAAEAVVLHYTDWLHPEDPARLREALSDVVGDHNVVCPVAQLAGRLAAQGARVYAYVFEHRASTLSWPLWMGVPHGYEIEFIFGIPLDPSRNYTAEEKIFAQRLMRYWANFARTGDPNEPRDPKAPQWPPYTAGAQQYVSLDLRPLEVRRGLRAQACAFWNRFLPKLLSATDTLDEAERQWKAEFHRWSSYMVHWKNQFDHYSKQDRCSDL
T5 sequence (P22303 32-614): as above
T3 sequence (P22303 32-614): as above

SMILES | Ki (recombinant human AChE) | AChE mode of inhibition (recombinant human AChE) | Inhibition of AChE staining associated with plaques (in words) [2] | Inhibition of staining, AChE pH 6.8 [2] | Inhibition of BChE staining associated with plaques (in words) [3] | Inhibition of staining, BChE pH 6.8 [3] | Inhibition of staining, AChE pH 8.0 [4] | Inhibition of AChE staining associated with normal neural elements (in words) [4] | Inhibition of staining, BChE pH 8.0 [5] | Inhibition of BChE staining associated with normal neural elements (in words) [5] | BChE mode of inhibition [1] | other results
COC(=O)c1ccc2c(c1)NC(=O)/C2=C(\Nc1ccc(N(C)C(=O)CN2CCN(C)CC2)cc1)c1ccccc1 [Nintedanib (2), nintedanib] | 7.1 µM | (Mixed Non-competitive) | complete inhibition | xxx (xxx (strong inhibition)) | complete inhibition | xxx (xxx (strong inhibition)) | - (– (no inhibition)) | no inhibition | - (– (no inhibition)) | no inhibition | – | Experimental BChE Ki [1, 8]: No Inhibition; Experimental BChE Ki ([1]; purified human serum BChE, BTChI substrate, pH 7.0, triplicate, listed as 2): did not inhibit
COc1ccc(COc2ccc(Cc3cnc(N)nc3N)cc2OC)cc1 [GW2580 (5), GW2580] | 71 µM | (Mixed Non-competitive) | did not inhibit | - (– (no inhibition)) | did inhibit | x/xx | - (– (no inhibition)) | did not inhibit | - (– (no inhibition)) | did not inhibit | – | Experimental BChE Ki [1, 8]: No Inhibition; Experimental BChE Ki ([1]; purified human serum BChE, BTChI substrate, pH 7.0, triplicate, listed as 5): did not inhibit
CN(C)CCOC(=O)COc1ccc(Cl)cc1 [Meclofenoxate Hydrochloride (6), meclofenoxate hydrochloride] | 63.2 µM | (Mixed Non-competitive) | moderate to strong inhibition | – | slight inhibition | – | - (– (no inhibition)) | did not inhibit | - (– (no inhibition)) | did not inhibit | (Mixed Non-competitive) | –
COc1ccc2c3c1O[C@H]1C[C@@H](O)C=C[C@@]31CCN(C)C2 [galantamine] | – | – | – | – | – | – | – | – | – | – | – | Inhibition of ChE staining associated with plaques [6]: inhibits; Inhibition of ChE staining associated with normal neural elements [7]: inhibits
O=c1c(O)c(-c2ccc(O)c(O)c2)oc2cc(O)cc(O)c12 [Quercetin (4), quercetin] | 62.2 µM | (Mixed Non-competitive) | – | – | – | – | – | – | – | – | (Mixed Non-competitive) | Ki (BChE; ref Katalinić et al. [60]): 68 µM; Ki (BChE; ref Orhan et al. [87]): 46.8 µM
O=c1c(O)c(-c2ccc(O)c(O)c2)oc2cc(O)ccc12 [Fisetin (3), fisetin] | – | competitive inhibition | – | – | – | – | – | – | – | – | uncompetitive inhibition | Ki (recombinant human AChE; recombinant human AChE, ATChI substrate, pH 7.0, triplicate, read-out: Experimental AChE Ki): 110 µM; Ki ([1]; purified human serum BChE, BTChI substrate, pH 7.0, triplicate, read-out: Experimental BChE Ki): 94.4 µM; Ki (AChE): 100 µM; Ki (BChE; ref Katalinić et al. [60]): 94.2 µM
Cc1nc(Nc2ncc(C(=O)Nc3c(C)cccc3Cl)s2)cc(N2CCN(CCO)CC2)n1 [Dasatinib (1), dasatinib] | 28.2 µM | (Mixed Non-competitive) | reduced by varying degrees | xx/x^a | complete inhibition | xxx (xxx (strong inhibition)) | - (– (no inhibition)) | no inhibition | - (– (no inhibition)) | no inhibition | (Mixed Non-competitive) | –
